In patent US4888336A, “Steroid 5-alpha-reductase inhibitors” (SmithKline Beckman Corporation, priority 1987, dated 1989):
Where two headings read alike, the source gives them in different places. Each block holds one compound with its values, some of them ahead of it.

Legend:
[1] = test system: Steroid 5-alpha-reductase; conditions: cited from earlier work; for Reversibility of inhibition: Table 1; for Inhibition of steroid 5-alpha-reductase, in words: literature description
[2] = test system: steroid 5-alpha-reductase; assay: In vivo inhibition of steroid 5-alpha-reductase: T and DHT levels in rat ventral prostate, 6 hours after oral dosing (Table III); design: species or system Male Charles River CD rats; conditions: for DHT level / T level: ± SEM
[3] = molecular target: T1, human steroid 5-alpha-reductase (Homo sapiens, UniProt P31213); assay: Inhibition of human prostatic steroid 5-alpha-reductase ([14C]-testosterone conversion, Dixon plot); format: biochemical
T1 construct: Prostatic particles were obtained by differential centrifugation; from tissue; host or cells: hyperplastic human prostate, washed 140,000×g particulate fraction
T1 sequence (P31213 1-254): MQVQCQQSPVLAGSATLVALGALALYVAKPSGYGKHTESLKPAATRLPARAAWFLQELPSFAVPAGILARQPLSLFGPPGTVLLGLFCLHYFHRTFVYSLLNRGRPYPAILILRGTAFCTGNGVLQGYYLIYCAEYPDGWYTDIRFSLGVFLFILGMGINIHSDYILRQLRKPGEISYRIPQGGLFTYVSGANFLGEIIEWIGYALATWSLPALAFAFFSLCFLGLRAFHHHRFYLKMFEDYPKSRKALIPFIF
Procedure: In determining potency in inhibiting the human enzyme, the following procedure was employed:
The tissue was homogenized in 3 to 5 volumes of 20 mM potassium phosphate, pH 6.5, buffer containing 0.33 M sucrose, 1 mM dithiothreitol, and 50 μM NADPH with a Brinkmann Polytron (Sybron Corporation, Westbury, N.Y.).
The resulting pellet was suspended in 20 mM potassium phosphate buffer, pH 6.5, containing 20% glycerol, 1 mM dithiothreitol, and 50 μM NADPH. The suspended particulate solution was stored at -80° C.
After incubating the solution at 37° C. for 20 to 30 minutes the reaction was quenched by the addition of 4 ml ethyl acetate and 0.25 μmol each of testosterone, dihydrotestosterone, androstanediol, and androstanedione as carriers. The organic layer was removed to a second test tube and evaporated to dryness in a Speed Vac. […] The radiochemical content in the bands of the substrate and the products was determined with a BIOSCAN Imaging Scanner (Bioscan, Inc., Washington, D.C.). The percent of recovered radiolabel converted to product was calculated, from which enzyme activity was determined. All incubations were conducted such that no more than 12% of the substrate (testosterone) was consumed.
The experimentally obtained data was computer fitted to a linear function by plotting the reciprocal of the enzyme activity (1/velocity) against the variable inhibitor concentration (Dixon, M. (1953), Biochem. J., 55, 170). Assuming that the steroidal inhibitor is a competitive inhibitor against testosterone, a value for the inhibition constant (Ki) can be calculated from equation 1: […]

[4] = test system: 5-alpha-reductase; assay: Time course of in vivo 5-alpha-reductase inhibition: T and DHT in rat ventral prostate (Table IV); design: species or system rats; conditions: for DHT level / T level: ventral prostate, mean + SEM; for DHT level: ** P < .05; for T level: listed as name T not given
[5] = read-out: K1 (5-alpha-Reductase Inhibitors)
[6] = human hyperplastic prostate particulate, pH 5.0, 37° C., read-out: Ki

Compound: CCN(CC)C(=O)[C@H]1CC[C@H]2[C@@H]3CC[C@H]4N(C)C(=O)CC[C@]4(C)[C@H]3CC[C@]12C [(4)]
- Reversibility of inhibition [1]: Reversible
- Ki [1, 5]: 5 nM

Compound: C[C@@H](CO)[C@H]1CCC2=C3CC[C@H]4N(C)C(=O)CC[C@]4(C)[C@H]3CC[C@@]21C [(20R)-Hydroxymethyl-4-methyl-4-aza-5-alpha-8(14)-pregnen-3-one]
- T/DHT ([2]; 5 mg/kg oral): 0.72
- DHT level ([2]; 5 mg/kg oral): 0.72 ± .21 ng/100 mg ventral prostate tissue
- T level ([2]; 5 mg/kg oral): 0.52 ± .27 ng/100 mg ventral prostate tissue
- T/DHT ([2]; 10 mg/kg oral): 0.83
- DHT level ([2]; 10 mg/kg oral): 0.53 ± .12 ng/100 mg ventral prostate tissue
- T level ([2]; 10 mg/kg oral): 0.44 ± .13 ng/100 mg ventral prostate tissue
- T/DHT ([2]; 20 mg/kg oral): 0.92
- DHT level ([2]; 20 mg/kg oral): 0.49 ± .14 ng/100 mg ventral prostate tissue
- T level ([2]; 20 mg/kg oral): 0.45 ± .12 ng/100 mg ventral prostate tissue

Compound: C=C1C[C@@H]2[C@H](CC[C@@]3(C)[C@H]2CC[C@]3(OC(C)=O)C(C)=O)[C@@]2(C)CCC(=O)C=C12 [(5)]
- Reversibility of inhibition [1]: Irreversible
- Inhibition of steroid 5-alpha-reductase, in words [1]: time-dependent inactivator
- Ki [1, 5]: 1250 nM

Compound: C[C@@H](C(=O)O)[C@H]1CCC2=C3CC[C@H]4N(C)C(=O)CC[C@]4(C)[C@H]3CC[C@@]21C [4-Methyl-4-aza-5-alpha-8(14)-pregnen-3-one-(20R)-20-carboxylic acid]
- T/DHT ([2]; 5 mg/kg oral): 0.79
- DHT level ([2]; 5 mg/kg oral): 0.43 ± .12 ng/100 mg ventral prostate tissue
- T level ([2]; 5 mg/kg oral): 0.34 ± .11 ng/100 mg ventral prostate tissue
- T/DHT ([2]; 10 mg/kg oral): 0.76
- DHT level ([2]; 10 mg/kg oral): 0.34 ± .09 ng/100 mg ventral prostate tissue
- T level ([2]; 10 mg/kg oral): 0.26 ± .07 ng/100 mg ventral prostate tissue
- T/DHT ([2]; 20 mg/kg oral): 0.88
- DHT level ([2]; 20 mg/kg oral): 0.34 ± .06 ng/100 mg ventral prostate tissue
- T level ([2]; 20 mg/kg oral): 0.30 ± .04 ng/100 mg ventral prostate tissue

Compound: C[C@]12CC[C@H]3[C@@H](CCC4=CC(=O)CC[C@@]43C)[C@@H]1CC[C@@H]2C(=O)O [(1)]
- Reversibility of inhibition [1]: Reversible
- Ki [1, 5]: 1100 nM

Compound: CC(=O)C1CCC2C3CC=C=CC(=O)CCC(=O)C3CCC12C (stereo not shown) [(2)]
- Reversibility of inhibition [1]: Irreversible
- Ki [1, 5]: 1000 nM

- Ki [3, 6]: 100 ± 10 nM
Compound: C[C@@H](C(=O)O)[C@H]1CCC2=C3CC[C@H]4N(C)C(=O)CC[C@]4(C)[C@H]3CC[C@@]21C [(2)]

Compound: CC(C)N(C(=O)[C@H]1CCC2=C3CC[C@H]4N(C)C(=O)CC[C@]4(C)[C@H]3CC[C@@]21C)C(C)C [4-Methyl-4-aza-5-alpha-8(14)-androsten-3-one-17β-N,N-diisopropylcarboxamide]
- T/DHT ([4]; 1 Hour): 1.00
- DHT level ([4]; 1 Hour): .532 ± .08 ng/100 mg tissue
- T level ([4]; 1 Hour): .533 ± .15 ng/100 mg tissue
- T/DHT ([4]; 2 Hours): .97
- DHT level ([4]; 2 Hours): .496 ± .05 ng/100 mg tissue
- T level ([4]; 2 Hours): .481 ± .12 ng/100 mg tissue
- T/DHT ([4]; 4 Hours): 1.20
- DHT level ([4]; 4 Hours): .504 ± .09 ng/100 mg tissue
- T level ([4]; 4 Hours): .607 ± .24 ng/100 mg tissue
- T/DHT ([4]; 8 Hours): 1.13
- DHT level ([4]; 8 Hours): .498 ± .04 ng/100 mg tissue
- T level ([4]; 8 Hours): .565 ± .16 ng/100 mg tissue
- Difference in DHT levels compared to controls, in words ([4]; at 1, 2, 4, and 8 hours, P < .05): significant differences in DHT levels

Compound: CC(C)N(C(=O)[C@H]1CCC2=C3CC[C@H]4N(C)C(=O)CC[C@]4(C)[C@H]3CC[C@@]21C)C(C)C [(3)]
- Ki [3, 6]: 8 ± 2 nM

Compound: C[C@@H](CO)[C@H]1CCC2=C3CC[C@H]4N(C)C(=O)CC[C@]4(C)[C@H]3CC[C@@]21C [(1)]
- Ki [3]: 450 ± 20 nM

Compound: CC(CO)[C@H]1CC[C@H]2[C@@H]3CC[C@H]4C(=[N+]=[N-])C(=O)CC[C@]4(C)[C@H]3CC[C@]12C (stereo partly shown) [(3)]
- Reversibility of inhibition [1]: Irreversible
- Ki ([1]; line (3) printed without unit, read-out: K1 (5-alpha-Reductase Inhibitors), unit inferred): 35 nM
- Inhibition of steroid 5-alpha-reductase, in words [1]: potent, time-dependent inhibitor
